Values joined by “and” are separate entries in the source; they are usually repeats but may differ in a detail not shown here. Equal entries are not always repeated. Active and inactive are the calls of the source.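 The calls were made as follows: active = compounds giving half or more protection of infected cells from virus-caused growth loss, again on retest; inactive = the rest.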
Tested on: CEM cells HIV-1 protection, formazan growth assay
Assay: NCI AIDS Antiviral Assay
Conditions: for IC50: measured here: growth of uninfected CEM cells
In short: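 Protection of CEM cells against HIV-1 measured as cell growth via soluble formazan read-out, with five concentrations tested on both infected and uninfected cells; failure to protect may reflect toxicity.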

SMILES	EC50	IC50	outcome
COc1cc(=O)n2c3ccccc3n(C)c2c1C#N	> 100 µM	56.2 µM	
Cc1cc2c(cc1C)C1=C(CCC2)C(=O)C(=O)O1	> 200 µM	110 µM	
Nc1c(N=O)c(=O)n(Cc2ccccc2)c(=O)n1Cc1ccccc1	> 200 µM	11.7 µM	
CC(=O)CC(C)=O.CCN(CC)CC[C-]=O.[Pd+2]	> 200 µM	5.89 µM	
O=C(Nc1ccc(Cl)cc1)Nc1ccc(Cl)c(Cl)c1	> 200 µM	2.95 µM	
C=C1C(OC(C)=O)[C@@]23CC[C@@H]4C(C)(C(=O)OC)CCCC4(C)[C@@H]2CC[C@@H]1C3 (some centres not stated)	> 200 µM	51.3 µM	
COc1cc2c3c(c1OC)C1(C=CC(=O)C=C1)CC3N(C(C)=O)CC2 (configuration not stated)			inactive
OC1(c2ccccc2)OC(C#Cc2ccccc2)(c2ccccc2)c2ccccc21 (configuration not stated)			inactive
CC(=O)c1ccc(C(O)C(CO)NC(=O)C(Cl)Cl)cc1 (configuration not stated)	> 200 µM	> 200 µM	
COC(CNC(=O)NC(=O)CCC(=O)O)[CH2][Hg][n]1cnc2c1c(=O)n(C)c(=O)n2C (configuration not stated)	> 200 µM	85.1 µM	
O=C1C2=C(c3ccccc31)C(c1ccccc1Cl)N1C(=O)CCSC1=N2 (configuration not stated)	> 26.3 µM	> 26.3 µM	
CC(=O)O[C@@H]1CN(S(=O)(=O)c2ccc(C)cc2)C[C@@H]1C1CCCCC1	> 200 µM	35.5 µM	
O=C(CC(=O)N1N=C(c2ccccc2)C(N=Nc2ccccc2Cl)C1=O)Nc1ccccc1Cl (configuration not stated)	> 52.5 µM	29.5 µM	
CCCCC(O)(c1ccccc1)C(O)(c1ccccc1)c1c(F)c(F)c(F)c(F)c1F (configuration not stated)	> 200 µM	39.8 µM	
O=c1c(-c2ccc(O)cc2)coc2cc(OC3OC(CO)C(O)C(O)C3O)cc(O)c12 (configuration not stated)	> 200 µM	> 200 µM	
COc1cc(C=C2C(=O)NC(=O)NC2=O)ccc1OCc1ccccc1	> 93.3 µM	89.1 µM	
CC(=O)Oc1ccc(S(=O)(=O)c2ccc(OC(C)=O)cc2)cc1	> 200 µM	9.12 µM	
COc1cc2cnc3c4ccccc4ccc3c2cc1OC	> 64.6 µM	> 64.6 µM	

SMILES	EC50	IC50	outcome
C=CCC1(OCc2ccccc2)C(=O)C(=O)OC1C1COC(C)(C)O1 (configuration not stated)	> 200 µM	> 200 µM	
CC1C(=O)NC(=O)CC(=O)NC1=O	> 1350 µM	> 1350 µM	
NCCNC(=O)CN(CC(=O)O)C1CCCCC1N(CC(=O)O)CC(=O)O (configuration not stated)	> 200 µM	> 200 µM	
O=c1nc2sc3ccc4ccccc4c3n2nc1-c1ccccc1	> 49 µM	> 49 µM	
NCC1OC(OC2C(N)CC(N)C(O)C2O)C(NC(=O)c2ccccc2)C(O)C1O (configuration not stated)			inactive
CCOC(=O)Cc1cc(=O)oc2c3c(cc(OC(C)C)c12)O[C@H](C)[C@@H](C)C3=O	> 200 µM	195 µM	
O=C(/C=C/c1ccc(O)c(O)c1)OC1CC(O)(C(=O)O)CC(O)C1O (configuration not stated) (tested in a mixture with another compound)	> 200 µM	81.3 µM	
CCCCCOC(=S)SSSC(=S)OCCCCC	> 200 µM	7.76 µM	
COc1cc(C)cc2c(-c3c(O)cc(O)c4c3CC(C)N[C@H]4C)cc(-c3cc(-c4c(O)cc(O)c5c4CC(C)N[C@H]5C)c4cc(C)cc(OC)c4c3O)c(O)c12 (some centres not stated)	38 µM	166 µM	
CC1(C)C2CCC1(C)C(N=C(N)CSS(=O)(=O)O)C2 (configuration not stated)	> 200 µM	49 µM and 30.9 µM	
C/C(=C\c1ccc(N(C)C)cc1)C(=O)O	> 66.1 µM	> 66.1 µM	
Cc1c([N+](=O)[O-])ccc2c1C(=O)c1ccccc1C2=O	> 200 µM	28.2 µM	
CSc1nc(NC2OCC(O)C(O)C2O)cc(=O)n1C (configuration not stated)			inactive
O=C1c2nc3n(c2C(=O)c2c1nc1n2CCC1)CCC3	> 200 µM	3.72 µM	
O=C1c2ccccc2-c2cccc3cccc1c23	> 16.2 µM	> 16.2 µM	
Clc1cccc(C2SCc3nc4ccccc4n32)c1 (configuration not stated)			inactive
CCCCS(=O)(=O)CCC(N)P(=O)(O)O (configuration not stated)	> 200 µM	> 200 µM	
OC(Cc1ccc(Br)cc1)CN1CCC(c2ccccc2)CC1 (configuration not stated)	> 229 µM	17.8 µM and 9.55 µM	

Reference: PubChem BioAssay AID179 (DTP/NCI, 2004)
